Data reported in patent USRE50528E1, “Compounds and compositions for modulating EGFR mutant kinase activities” (Yuhan Corporation, priority 2014, dated 2025).
pIC50: −log10 of the molar value.

Assays:
EGFR mutant T790M = molecular target: T1, EGFR mutant T790M (Homo sapiens, UniProt P00533, T790M); assay: Kinase inhibition assay, EGFR mutant T790M; conditions: biochemical potency;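 further: truncated human EGFR mutant enzyme preincubated two hours with compound, then ATP plus ULight-PolyGT peptide for one hour, Europium-labeled antibody LANCE detection, IC50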
T1 construct: truncated human JAK3, EGFR mutants such as del E746-A750; purchased Carna Biosciences
T1 sequence (P00533 669-1210 T790M limits assumed): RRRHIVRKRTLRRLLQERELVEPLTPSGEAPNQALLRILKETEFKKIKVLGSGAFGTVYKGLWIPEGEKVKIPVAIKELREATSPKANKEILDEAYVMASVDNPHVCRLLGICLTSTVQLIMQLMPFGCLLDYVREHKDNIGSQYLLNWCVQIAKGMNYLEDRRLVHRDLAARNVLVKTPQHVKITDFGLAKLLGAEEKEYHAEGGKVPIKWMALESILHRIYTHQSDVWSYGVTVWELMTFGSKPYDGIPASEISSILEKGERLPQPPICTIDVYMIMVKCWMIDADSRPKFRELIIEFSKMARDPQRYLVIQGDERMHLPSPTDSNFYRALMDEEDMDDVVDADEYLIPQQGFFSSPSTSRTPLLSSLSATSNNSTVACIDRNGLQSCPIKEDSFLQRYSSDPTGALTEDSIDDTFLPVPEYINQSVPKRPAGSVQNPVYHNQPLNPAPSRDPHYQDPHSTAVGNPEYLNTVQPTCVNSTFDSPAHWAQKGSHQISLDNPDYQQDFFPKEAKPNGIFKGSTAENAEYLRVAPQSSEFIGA

[1] = molecular target: T2, EGFR mutant Del19 (E746-A750) (Homo sapiens, UniProt P00533, DEL746-750); assay: Kinase inhibition assay, EGFR del E746-A750; format: biochemical; conditions: read-out: EGFR mutants Del19 (E746-A750);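 further: truncated human EGFR mutant kinase, two-hour preincubation with compound, then one-hour reaction with ATP and ULight-PolyGT peptide, LANCE Europium-antibody phosphorylation readout, IC50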
T2 construct: truncated human JAK3, EGFR mutants such as del E746-A750; purchased Carna Biosciences
T2 sequence (P00533 with tags, fused parts or gaps DEL746-750 limits assumed): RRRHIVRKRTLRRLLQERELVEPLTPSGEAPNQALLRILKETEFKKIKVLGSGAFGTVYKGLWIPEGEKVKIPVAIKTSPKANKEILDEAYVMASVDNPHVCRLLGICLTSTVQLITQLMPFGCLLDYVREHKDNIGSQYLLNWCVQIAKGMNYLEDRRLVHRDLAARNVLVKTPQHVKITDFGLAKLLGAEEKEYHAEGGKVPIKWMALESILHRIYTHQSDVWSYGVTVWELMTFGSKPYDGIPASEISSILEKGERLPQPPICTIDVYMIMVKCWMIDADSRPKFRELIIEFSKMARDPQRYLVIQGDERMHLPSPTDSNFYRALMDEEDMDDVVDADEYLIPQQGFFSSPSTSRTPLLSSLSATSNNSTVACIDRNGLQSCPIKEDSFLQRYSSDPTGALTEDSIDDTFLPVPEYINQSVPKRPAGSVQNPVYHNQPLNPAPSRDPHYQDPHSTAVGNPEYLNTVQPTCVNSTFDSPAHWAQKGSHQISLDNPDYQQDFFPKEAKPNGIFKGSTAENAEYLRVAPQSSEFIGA

EGFR mutant L858R = molecular target: T3, EGFR mutant L858R (Homo sapiens, UniProt P00533, L858R); assay: Kinase inhibition assay, EGFR L858R; format: biochemical; conditions: read-out: EGFR mutants L858R;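 further: truncated human EGFR L858R kinase with compound preincubation, ULight-PolyGT peptide phosphorylation read by Europium-antibody Lance detection, IC50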
T3 construct: truncated human JAK3, EGFR mutants such as del E746-A750; purchased Carna Biosciences
T3 sequence (P00533 669-1210 L858R limits assumed): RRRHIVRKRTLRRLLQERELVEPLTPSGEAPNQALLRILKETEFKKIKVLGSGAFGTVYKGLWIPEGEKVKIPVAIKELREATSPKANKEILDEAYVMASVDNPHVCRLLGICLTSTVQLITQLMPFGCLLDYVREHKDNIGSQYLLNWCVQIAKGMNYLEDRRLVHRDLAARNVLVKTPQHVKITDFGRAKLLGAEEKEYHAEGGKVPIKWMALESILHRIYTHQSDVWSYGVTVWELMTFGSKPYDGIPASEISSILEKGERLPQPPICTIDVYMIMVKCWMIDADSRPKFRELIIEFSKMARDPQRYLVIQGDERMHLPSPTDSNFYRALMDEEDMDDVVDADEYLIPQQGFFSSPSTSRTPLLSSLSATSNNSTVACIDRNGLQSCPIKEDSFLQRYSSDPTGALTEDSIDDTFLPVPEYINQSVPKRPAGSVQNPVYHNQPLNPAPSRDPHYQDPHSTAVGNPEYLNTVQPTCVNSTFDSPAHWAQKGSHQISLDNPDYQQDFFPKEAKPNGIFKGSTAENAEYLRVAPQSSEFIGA

EGFR mutant L858R/T790M = molecular target: T4, EGFR mutant L858R/T790M (Homo sapiens, UniProt P00533, L858R/T790M); assay: Kinase inhibition assay, EGFR L858R/T790M; format: biochemical; conditions: read-out: EGFR mutants L858R/T790M;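 further: truncated human enzyme preincubated two hours with compound, then one hour with one millimolar ATP and ULight-PolyGT peptide, Europium-labeled antibody detection, IC50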
T4 construct: truncated human JAK3, EGFR mutants such as del E746-A750; purchased Carna Biosciences
T4 sequence (P00533 669-1210 T790M/L858R limits assumed): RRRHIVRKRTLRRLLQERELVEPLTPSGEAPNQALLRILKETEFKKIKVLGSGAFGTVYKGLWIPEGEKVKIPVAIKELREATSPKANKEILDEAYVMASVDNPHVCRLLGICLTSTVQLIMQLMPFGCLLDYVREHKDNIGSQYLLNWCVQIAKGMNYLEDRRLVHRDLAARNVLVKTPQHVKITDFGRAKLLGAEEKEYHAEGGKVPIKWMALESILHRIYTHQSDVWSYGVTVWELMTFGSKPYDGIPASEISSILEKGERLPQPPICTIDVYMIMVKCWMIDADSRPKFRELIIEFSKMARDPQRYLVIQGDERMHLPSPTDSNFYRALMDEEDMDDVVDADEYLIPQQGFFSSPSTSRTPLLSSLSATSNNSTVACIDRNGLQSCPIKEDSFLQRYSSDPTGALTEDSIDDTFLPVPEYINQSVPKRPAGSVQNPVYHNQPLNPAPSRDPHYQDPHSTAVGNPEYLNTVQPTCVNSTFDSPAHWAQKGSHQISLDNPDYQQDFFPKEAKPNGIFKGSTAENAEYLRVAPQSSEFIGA

EGFR mutant Del19/T790M = molecular target: T5, EGFR mutant Del19/T790M (Homo sapiens, UniProt P00533, DEL746-750/T790M); assay: Kinase inhibition assay, EGFR del E746-A750/T790M; format: biochemical; conditions: read-out: EGFR mutants Del19/T790M
T5 construct: truncated human JAK3, EGFR mutants such as del E746-A750; purchased Carna Biosciences
T5 sequence (P00533 with tags, fused parts or gaps DEL746-750/T790M limits assumed): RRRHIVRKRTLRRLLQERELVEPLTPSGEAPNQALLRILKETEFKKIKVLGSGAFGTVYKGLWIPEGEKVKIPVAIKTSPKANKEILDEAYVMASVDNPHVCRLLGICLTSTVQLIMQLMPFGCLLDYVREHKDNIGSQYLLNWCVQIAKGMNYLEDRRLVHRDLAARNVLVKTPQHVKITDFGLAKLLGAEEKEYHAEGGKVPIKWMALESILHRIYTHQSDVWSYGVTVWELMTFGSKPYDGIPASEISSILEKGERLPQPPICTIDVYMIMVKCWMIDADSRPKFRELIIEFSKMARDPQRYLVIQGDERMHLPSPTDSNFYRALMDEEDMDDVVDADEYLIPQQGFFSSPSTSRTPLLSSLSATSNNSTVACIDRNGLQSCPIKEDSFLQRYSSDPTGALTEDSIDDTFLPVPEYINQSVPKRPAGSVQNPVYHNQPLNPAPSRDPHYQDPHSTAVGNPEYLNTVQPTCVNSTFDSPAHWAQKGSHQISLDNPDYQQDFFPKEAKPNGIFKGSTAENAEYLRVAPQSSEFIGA

SYK = molecular target: T6, SYK (Homo sapiens, UniProt P43405); assay: Kinase inhibition assay, SYK; format: biochemical; conditions: biochemical potency;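 further: purified full-length human SYK pre-incubated 30 min with compound, then ULight-TK peptide phosphorylation for 1 h, detected with Europium-labeled antibody in Lance buffer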
T6 construct: Purified human, full-length SYK, KDR; purchased Carna Biosciences

Structure (SMILES)	pIC50 (EGFR mutant T790M)	pIC50 [1]	pIC50 (EGFR mutant L858R)	pIC50 (EGFR mutant L858R/T790M)	pIC50 (EGFR mutant Del19/T790M)	pIC50 (SYK)
C=CC(=O)Nc1cc(Nc2nccc(-n3cc(CN(C)C)c(-c4ccc(F)cc4)n3)n2)c(OC)cc1N1CCOCC1 [Compound 6, N-(5-(4-(4-((dimethylamino)methyl)-3-(4-fluorophenyl)-1H-pyrazol-1-yl)pyrimidin-2-ylamino)-4-methoxy-2-morpholinophenyl)acrylamide]	6.70 to 7.70	6.70 to 7.70	6.70 to 7.70	> 7.70	> 7.70	< 6.00
C=CC(=O)Nc1cc(Nc2ncc(C)c(-n3cc(CN(C)C)c(C(C)(C)C)n3)n2)c(OC)cc1N1CCOCC1 [Compound 7, N-(5-(4-(3-tert-butyl-4-((dimethylamino)methyl)-1H-pyrazol-1-yl)-5-methylpyrimidin-2-ylamino)-4-methoxy-2-morpholinophenyl)acrylamide]	> 7.70	> 7.70	> 7.70	> 7.70	> 7.70	< 6.00
C=CC(=O)Nc1cc(Nc2nccc(-n3cc(CN4CC(O)C4)c(C)n3)n2)c(OC)cc1N1CCOCC1 [Compound 15, N-(5-(4-(4-((3-hydroxyazetidin-1-yl)methyl)-3-methyl-1H-pyrazol-1-yl)pyrimidin-2-ylamino)-4-methoxy-2-morpholinophenyl)acrylamide]	> 7.70	> 7.70	> 7.70	> 7.70	> 7.70	6.00 to 6.70
C=CC(=O)Nc1cc(Nc2ncc(C)c(-n3cc(CN4C[C@H](O)[C@H](OC)C4)cn3)n2)c(OC)cc1N1CCOCC1 [Compound 21, N-(5-(4-(4-(((3S,4R)-3-hydroxy-4-methoxypyrrolidin-1-yl)methyl)-1H-pyrazol-1-yl)-5-methylpyrimidin-2-ylamino)-4-methoxy-2-morpholinophenyl)acrylamide]	> 7.70	> 7.70	6.70 to 7.70	> 7.70	> 7.70	6.00 to 6.70
C=CC(=O)Nc1cc(Nc2ncc(C)c(-n3cc(CN(C)C)cn3)n2)c(OC)cc1N1CCOCC1 [Compound 22, N-(5-(4-(4-((dimethylamino)methyl)-1H-pyrazol-1-yl)-5-methylpyrimidin-2-ylamino)-4-methoxy-2-morpholinophenyl)acrylamide]	> 7.70	> 7.70	6.70 to 7.70	> 7.70	> 7.70	6.70 to 7.70
C=CC(=O)Nc1cc(Nc2ncc(C)c(-n3cc(CN(C)C4CN(C)C4)cn3)n2)c(OC)cc1N1CCOCC1 [Compound 23, N-(4-methoxy-5-(5-methyl-4-(4-((methyl(1-methylazetidin-3-yl)amino)methyl)-1H-pyrazol-1-yl)pyrimidin-2-ylamino)-2-morpholinophenyl)acrylamide]	6.00 to 6.70	6.00 to 6.70	–	6.00 to 6.70	6.00 to 6.70	< 6.00
C=CC(=O)Nc1cc(Nc2ncc(C)c(-n3cc(CN4CC[C@H](O)C4)c(C)n3)n2)c(OC)cc1N1CCOCC1 [Compound 28, (S)—N-(5-(4-(4-((3-hydroxypyrrolidin-1-yl)methyl)-3-methyl-1H-pyrazol-1-yl)-5-methylpyrimidin-2-ylamino)-4-methoxy-2-morpholinophenyl)acrylamide]	> 7.70	> 7.70	> 7.70	> 7.70	> 7.70	6.00 to 6.70
C=CC(=O)Nc1cc(Nc2ncc(C)c(-n3cc(CN4CC(O)C4)c(C)n3)n2)c(OC)cc1N1CCCCC1 [Compound 30, N-(5-(4-(4-((3-hydroxyazetidin-1-yl)methyl)-3-methyl-1H-pyrazol-1-yl)-5-methylpyrimidin-2-ylamino)-4-methoxy-2-(piperidin-1-yl)phenyl)acrylamide]	> 7.70	> 7.70	> 7.70	> 7.70	> 7.70	6.70 to 7.70
C=CC(=O)Nc1cc(Nc2nccc(-n3cc(CN4CC[C@H](N(C)C)C4)cn3)n2)c(OC)cc1N1CCOCC1 [Compound 35, (S)—N-(5-(4-(4-((3-(dimethylamino)pyrrolidin-1-yl)methyl)-1H-pyrazol-1-yl)pyrimidin-2-ylamino)-4-methoxy-2-morpholinophenyl)acrylamide]	–	6.00 to 6.70	6.00 to 6.70	6.00 to 6.70	6.70 to 7.70	< 6.00
C=CC(=O)Nc1cc(Nc2nccc(-n3cc(CN4CC[C@@H](N(C)C)C4)cn3)n2)c(OC)cc1N1CCOCC1 [Compound 39, (R)—N-(5-(4-(4-((3-(dimethylamino)pyrrolidin-1-yl)methyl)-1H-pyrazol-1-yl)pyrimidin-2-ylamino)-4-methoxy-2-morpholinophenyl)acrylamide]	–	6.00 to 6.70	6.00 to 6.70	6.00 to 6.70	6.70 to 7.70	< 6.00
C=CC(=O)Nc1cc(Nc2nccc(-n3cc(CN4CCC4)c(C)n3)n2)c(OC)cc1-c1ccccc1OC [Compound 68, N-(4-(4-(4-(azetidin-1-ylmethyl)-3-methyl-1H-pyrazol-1-yl)pyrimidin-2-ylamino)-2′,5-dimethoxybiphenyl-2-yl)acrylamide]	–	6.70 to 7.70	6.00 to 6.70	6.70 to 7.70	6.70 to 7.70	< 6.00
C=CC(=O)Nc1cc(Nc2nccc(-n3cc(CN4CCC4)c(C)n3)n2)c(OC)cc1N1CCC(F)(F)CC1 [Compound 69, N-(5-(4-(4-(azetidin-1-ylmethyl)-3-methyl-1H-pyrazol-1-yl)pyrimidin-2-ylamino)-2-(4,4-difluoropiperidin-1-yl)-4-methoxyphenyl)acrylamide]	–	> 7.70	6.70 to 7.70	6.70 to 7.70	> 7.70	< 6.00
C=CC(=O)Nc1cc(Nc2nccc(-n3cc(CN4CCCC4)c(-c4ccccc4)n3)n2)c(OC)cc1N1CCOCC1 [Compound 90, N-(4-methoxy-2-morpholino-5-(4-(3-phenyl-4-(pyrrolidin-1-ylmethyl)-1H-pyrazol-1-yl)pyrimidin-2-ylamino)phenyl)acrylamide]	–	> 7.70	6.70 to 7.70	> 7.70	> 7.70	< 6.00
C=CC(=O)Nc1cc(Nc2nccc(-n3cc(CN(C)C)c(C(C)(C)C)n3)n2)c(OC)cc1N(CC)CCOC [Compound 126, N-(5-(4-(3-tert-butyl-4-((dimethylamino)methyl)-1H-pyrazol-1-yl)pyrimidin-2-ylamino)-2-(ethyl(2-methoxyethyl)amino)-4-methoxyphenyl)acrylamide]	6.70 to 7.70	> 7.70	> 7.70	> 7.70	> 7.70	–
C=CC(=O)Nc1cc(Nc2nccc(-n3cc(CN(C)C)c(-c4cccnc4)n3)n2)c(OC)cc1N1CCOCC1 [Compound 128, N-(5-(4-(4-((dimethylamino)methyl)-3-(pyridin-3-yl)-1H-pyrazol-1-yl)pyrimidin-2-ylamino)-4-methoxy-2-morpholinophenyl)acrylamide]	> 7.70	> 7.70	> 7.70	> 7.70	> 7.70	–
C=CC(=O)Nc1cc(Nc2ncc(C)c(-n3cc(CN(C)C)c(C4CC4)n3)n2)c(OC)cc1N(C)C1COC1 [Compound 132, N-(5-(4-(3-cyclopropyl-4-((dimethylamino)methyl)-1H-pyrazol-1-yl)-5-methylpyrimidin-2-ylamino)-4-methoxy-2-(methyl(oxetan-3-yl)amino)phenyl)acrylamide]	> 7.70	> 7.70	> 7.70	> 7.70	> 7.70	–
C=CC(=O)Nc1cc(Nc2nccc(-n3cc(CN(C)C)c(-c4ccncc4)n3)n2)c(OC)cc1N1CCOCC1 [Compound 136, N-(5-(4-(4-((dimethylamino)methyl)-3-(pyridin-4-yl)-1H-pyrazol-1-yl)pyrimidin-2-ylamino)-4-methoxy-2-morpholinophenyl)acrylamide]	> 7.70	> 7.70	> 7.70	> 7.70	> 7.70	–
C=CC(=O)Nc1cc(Nc2nccc(-n3cc(CN(C)CC)c(C4CC4)n3)n2)c(OC)cc1N1CCN(C(C)=O)CC1 [Compound 137, N-(2-(4-acetylpiperazin-1-yl)-5-(4-(3-cyclopropyl-4-((ethyl(methyl)amino)methyl)-1H-pyrazol-1-yl)pyrimidin-2-ylamino)-4-methoxyphenyl)acrylamide]	> 7.70	> 7.70	> 7.70	> 7.70	> 7.70	–
C=CC(=O)Nc1cc(Nc2ncc(F)c(-n3cc(C)c(CN4CCC4)c3)n2)c(OC)cc1N(C)C [Compound 142, N-(5-(4-(3-(azetidin-1-ylmethyl)-4-methyl-1H-pyrrol-1-yl)-5-fluoropyrimidin-2-ylamino)-2-(dimethylamino)-4-methoxyphenyl)acrylamide]	–	> 7.70	> 7.70	> 7.70	> 7.70	6.00 to 6.70
C=CC(=O)Nc1cc(Nc2nccc(-n3cc(CN(C)CC)c(C)n3)n2)c(OC)cc1N1CCOCC1 [Compound 145, N-(5-(4-(4-((ethyl(methyl)amino)methyl)-3-methyl-1H-pyrazol-1-yl)pyrimidin-2-ylamino)-4-methoxy-2-morpholinophenyl)acrylamide]	6.70 to 7.70	> 7.70	> 7.70	> 7.70	> 7.70	–
